The test system of data set [1] is rat. Particulars: Prenatal developmental toxicity study, sprague dawley, Oral, Gavage/Intubation, dose end: 15 GD.
Data set [2] concerns rabbit. The settings on record: Prenatal developmental toxicity study, new zealand white, Oral, Gavage/Intubation, dose end: 19 GD, group: maternal.
The test system of data set [3] is rat. Particulars: Combined chronic toxicity/carcinogenicity, sprague dawley, Oral, Gavage/Intubation, dose end: 104 week.
In data set [4] the test system is rat. The settings on record: Subchronic oral toxicity in rodents, sprague dawley, Gavage/Intubation, dose end: 90 day.
Data set [5] relates to mouse. Particulars: Carcinogenicity; cd1; Oral; Feed; dose end: 18 month; group: systemic; systemic / in life observation / body weight / body weight + systemic / in life observation / body weight / body weight gain.
The subject of data set [6] is rat. Particulars: Multigenerational reproductive toxicity study, sprague dawley, Oral, Gavage/Intubation, dose end: 2 generation.
[7] abbreviates: group: developmental, developmental / developmental malformation / ureter / distended.
Where [8] appears, read: group: maternal, systemic / in life observation / clinical signs / general pallor + systemic / in life observation / clinical signs / pale and/or opaque eyes….
The mark [9] stands for this setting: reproductive / offspring survival early / offspring survival early other / NOS.
Setting [10] is: group: cholinesterase, cholinesterase / cholinesterase / cholinesterase / brain cholinesterase (che) + cholinesterase / cholinesterase / cholinesterase / plasma ….
The mark [11] stands for this setting: group: cholinesterase, cholinesterase / cholinesterase / cholinesterase / erythrocyte cholinesterase (che).
Setting [12] is: group: systemic, systemic / pathology microscopic / liver / adenoma/carcinoma combined.
Setting [13] is: group: cholinesterase, cholinesterase / cholinesterase / cholinesterase / plasma cholinesterase (che).
Setting [14] is: group: cholinesterase, cholinesterase / cholinesterase / cholinesterase / plasma cholinesterase (che) + cholinesterase / cholinesterase / cholinesterase / brain ….
Setting [15] is: group: systemic, systemic / in life observation / clinical signs / pupillary function (dilation or constriction).
Setting [16] is: group: systemic, systemic / in life observation / clinical signs / pupillary function (dilation or constriction) + systemic / in life observation / body ….
Setting [17] is: group: offspring, developmental / offspring survival late / lactation index / lactation index + developmental / offspring survival late / viability index / ….
[18] abbreviates: group: offspring, systemic / in life observation / body weight / offspring (pup) weight.
[19] abbreviates: group: reproductive, reproductive / reproductive performance / estrous cycle / corpora lutea.
[20] abbreviates: group: reproductive, reproductive / reproductive performance / estrous cycle / corpora lutea + reproductive / reproductive performance / fertility / fertility + ….

The LOAEL is the lowest dose or exposure tested at which an adverse effect was seen. By NOAEL is commonly meant the highest tested level that showed no adverse finding. Turning to `O=C1c2ccccc2C(=O)C1C(=O)C(c1ccccc1)c1ccc(Cl)cc1` (stereo not drawn) [Chlorophacinone], the LEL came to 0.0125 mg/kg/day in data set [1] (setting [7]), 0.1 mg/kg/day in data set [1] (setting [8]) and 0.025 mg/kg/day in data set [2] (reproductive / offspring survival early / offspring survival early other / NOS + systemic / in life observation / clinical signs / red or …). For the same molecule, the figures for the LOAEL in data set [1] (setting [7]), in data set [1] (setting [8]) and in data set [2] (setting [9]) were 0.0125 mg/kg/day, 0.1 mg/kg/day and 0.025 mg/kg/day, respectively. Besides, the NEL in data set [1] (setting [7]) was < 0.0125 mg/kg/day; in data set [1] (setting [8]), 0.05 mg/kg/day; in data set [2] (systemic / in life observation / clinical signs / red or crusty deposits around eyes, ears, nose, or mouth + systemic / in life observation…), 0.01 mg/kg/day. The values for the no observed adverse effect level (NOAEL) in data set [1] (setting [7]), in data set [1] (setting [8]) and in data set [2] (setting [9]) were < 0.0125 mg/kg/day, 0.05 mg/kg/day and 0.01 mg/kg/day, respectively.
In the case of `COC(=O)C=C(C)OP(=O)(OC)OC` [Mevinphos], the LOAEL in data set [3] (setting [10]) was 0.35 mg/kg/day; in data set [3] (setting [12]), > 0.6 mg/kg/day; in data set [4] (setting [13]), 0.056 mg/kg/day; in data set [4] (setting [15]), 0.056 mg/kg/day; in data set [5] it was 3.7 mg/kg/day; in data set [6] (setting [13]), 0.05 mg/kg/day. The LOAEL in data set [6] (setting [17]) is > 0.5 mg/kg/day; in data set [6] (group: parental, systemic / organ weight / ovary / relative to body weight + systemic / organ weight / testes / absolute) it was 0.5 mg/kg/day; in data set [6] (setting [20]), 0.5 mg/kg/day. Besides, the NOAEL is 0.025 mg/kg/day in data set [3] (setting [10]); ≥ 0.6 mg/kg/day in data set [3] (setting [12]); 0.011 mg/kg/day in data set [4] (setting [14]); 0.011 mg/kg/day in data set [4] (setting [16]); 1.5 mg/kg/day in data set [5]; < 0.05 mg/kg/day in data set [6] (setting [13]). Moreover, the no-observed-adverse-effect level (NOAEL) was ≥ 0.5 mg/kg/day in data set [6] (setting [17]); 0.1 mg/kg/day in data set [6] (group: parental, systemic / organ weight / ovary / relative to body weight + systemic / in life observation / body weight / body weight); 0.1 mg/kg/day in data set [6] (setting [19]). Also, the LEL in data set [3] (setting [11]) worked out at 0.025 mg/kg/day; in data set [3] (setting [12]), 0.6 mg/kg/day; in data set [4] (setting [13]) it was 0.056 mg/kg/day; in data set [4] (setting [15]) it was 0.056 mg/kg/day; in data set [5], 3.7 mg/kg/day; in data set [6] (setting [13]), 0.05 mg/kg/day. Further, the LEL in data set [6] (setting [18]) was determined as 0.05 mg/kg/day; in data set [6] (group: parental, systemic / organ weight / ovary / relative to body weight + systemic / organ weight / testes / absolute + systemic / in life observation / …) it was 0.5 mg/kg/day; in data set [6] (setting [20]) it was 0.5 mg/kg/day. In addition, the NEL in data set [3] (setting [11]) is < 0.025 mg/kg/day; in data set [3] (setting [12]) it was 0.35 mg/kg/day; in data set [4] (setting [14]), 0.011 mg/kg/day; in data set [4] (setting [16]) it was 0.011 mg/kg/day; in data set [5], 1.5 mg/kg/day; in data set [6] (setting [13]), < 0.05 mg/kg/day. In addition, the NEL was < 0.05 mg/kg/day in data set [6] (setting [18]); 0.1 mg/kg/day in data set [6] (group: parental, systemic / in life observation / clinical signs / ataxia + systemic / in life observation / clinical signs / oral discharge + systemic / in …); 0.1 mg/kg/day in data set [6] (setting [19]).

Source of the values: EPA's ToxRefDB 2.
